In patent US20080131907A1, “ASSAYS FOR DETECTING NATIVE-STATE PROTEINS AND IDENTIFYING COMPOUNDS THAT MODULATE THE STABILITY OF NATIVE-STATE PROTEINS” (FoldRx Pharmaceuticals, Inc., priority 2006, published 2008):
Several values for one entry are separate records, joined by “and”; a condition that tells them apart may be missing. Equal values may be shown once.

What was measured:
tetrameric transthyretin [1] = target: T1, tetrameric transthyretin (Homo sapiens, UniProt P02766); experiment: Immuno-turbidimetric assay 2: plasma + compound, urea, no cross-linking (dilution or immediate detection); settings: for Stabilization of transthyretin tetramer (in words): 7.2 μM, urea for 3 days, Table 2; for Stabilization of transthyretin tetramer (in words) / Beckman Normalized / Olympus Normalized: human plasma; for Beckman Normalized / Olympus Normalized: 7.2 μM compound, 4.8 M urea; for Beckman Normalized: Beckman reagent; for Olympus Normalized: Olympus reagent
Description: In this second assay, the cross-linking step is replaced with a step of terminating denaturation (caused by the urea treatment) by dilution of the sample. Briefly, a 1 ml sample of human plasma was combined with either 1 μl of a test compound (Cmp. 1: 2-(2,6-dichloro-phenyl)-benzoxazole-6-carboxylic acid or Cmp. 2: 2-(3,5-dichloro-phenyl)-benzoxazole-6-carboxylic acid; see Published U.S. Application No. 20040152140) solubilized in DMSO or a control solution of DMSO, and the samples were incubated for 15 minutes at room temperature prior to addition of urea. The final concentration of the test compounds was 7.2 μM in DMSO. A solution of urea was added such that the final concentration of urea in the sample was 4.8 M. A 1 mL aliquot was removed immediately (no incubation (no-inc)) for dilution (see below) and the remaining 1.5 mL mixture was incubated for 3 days at room temperature (3 day) (FIG. 3). Immediately (for the no-inc) or following the three day incubation (for the 3 day samples), the samples were diluted 1:5 (four volumes diluent were added per one volume equivalent of sample). Potassium chloride (KCl) and sodium phosphate (NaPO4) were also added to the samples at final concentrations of 50 mM and 25 mM, respectively.
2 was also monitored using immuno-turbidimetric assay 2 (Example 2). Plasma samples (a pool from 16 individual donors) containing 4.6 μM transthyretin were treated with 4.6 μm, or 9.2 μm Cmp. 2, or DMSO as a negative control, for 15 minutes at room temperature. Following the incubation, urea was added to the samples resulting in a final urea concentration of 3.2 M (see FIG. 7). Aliquots were removed immediately (day 0) and after incubation at room temperature for 8, 13, 24, 32, and 48 hours. Immediate detection of transthyretin using the Bayer ADVIA prealbumin kit was performed as described by the manufacturer. For each concentration of Cmp. 2, the assay-determined transthyretin concentration at 8, 13, 24, 32, and 48 hours was divided by the assay-determined initial concentration at day 0 to yield the percent of tetramer remaining (FIG. 7).

tetrameric transthyretin [2] = target: T1, tetrameric transthyretin; experiment: Immuno-turbidimetric assay 1: plasma + compound, 4.8 M urea, glutaraldehyde cross-linking, Olympus OSR6175 reagent; settings: for Normalized (mg/dL) transthyretin tetramer concentration: 7.2 μM compound, 40 mM glutaraldehyde
Description: Next, the immuno-turbidity assay was evaluated in human plasma samples containing transthyretin and in the presence and absence of a test compound 2-(2,6-dichloro-phenyl)-benzoxazole-6-carboxylic acid (a transthyretin stabilizing compound, see Published U.S. Application No. 20040152140). A 1 mL plasma sample was incubated with 1 μL of 2-(2,6-Dichloro-phenyl)-benzoxazole-6-carboxylic acid (solubilized in dimethyl sulfoxide (DMSO), or a control solution containing only DMSO, for 15 minutes at room temperature. The final test concentration of 2-(2,6-dichloro-phenyl)-benzoxazole-6-carboxylic acid (Cmp. 1) was 7.2 μM. Experimental (with compound) or control (only DMSO) samples were then each combined with 1.5 mL of 8 M urea to a final urea concentration of 4.8 M. A 1 mL aliquot was removed immediately (no incubation (no-inc)) for cross-linking and the remaining 1.5 mL mixture was incubated for 3 days at room temperature (3 day). Immediately for the no-inc 1 mL aliquot or following the 3 day incubation for the 3 day samples, 1 mL of the samples was cross-linked by adding 16 L of 25% (2.5 M) glutaraldehyde in water to a final concentration of 40 mM. The mixtures were incubated for 4 minutes at room temperature. The cross-linking reaction was stopped by the addition of 54 μL of 1.85 M freshly prepared sodium borohydride in 0.1 N sodium hydroxide, followed by a 5 minute incubation at room temperature. For analysis, the OSR6175 reagent was added to sample per manufacturer's instructions, and the turbidity, as a measure of the difference between incident and transmitted light, was calculated per manufacturer instruction.
To test the effect of different dosages of 2-(3,5-dichloro-phenyl)-benzoxazole-6-carboxylic acid (Cmp. 2) on transthyretin stabilization, plasma samples (a pool from 20 individual donors) containing 4.3 M transthyretin were treated with 2.2 μM, 4.3 μm, or 8.6 μm Cmp. 2, or DMSO as a negative control, for 15 minutes at room temperature. Following the incubation, the urea denaturant was added to the samples resulting in a final urea concentration of 4.8 M (see FIG. 6). As above, aliquots were removed immediately (day 0) and after incubation at room temperature for 1, 2, and 3 days. Cross-linking (glutaraldehyde) and detection of transthyretin using the Olympus OSR6175 reagent were performed as described under Example 1. For each concentration of Cmp. […]
Since the concentration of transthyretin fluctuates from day to day in an individual subject and can vary between different subjects (e.g., different patients), the efficacy of Cmp. […] Samples were then subjected to denaturation and cross-linking, and stabilized tetrameric transthyretin was measured as described above in Examples 1 and 3.

tetrameric transthyretin [3] = target: T1, tetrameric transthyretin; experiment: Western blotting method (urea, cross-linking, SDS-PAGE, anti-transthyretin immunoblot) of plasma samples; format: biochemical; parameters: human plasma samples containing transthyretin; from tissue; host or cells: human plasma (single samples or pools of donors); settings: 7.2 μM, 3 day urea treatment, FIG. 4B
Description: The position of transthyretin tetramer on the immunoblot is indicated at the left of the immunoblot, and the time point at which the samples were collected for assay (0 or 3 days) are indicated above the immunoblot.

[4] = target: V30M transthyretin mutation, tetrameric transthyretin (Homo sapiens, UniProt P02766, V50M); experiment: Immuno-turbidimetric assay 1 on pooled plasma from familial amyloid polyneuropathy patients; format: biochemical; settings: urea 24, 31 or 36, or 48 hours; 22 mg/dL transthyretin; FIG. 9
Description: The Y-axis represents the percentage of the initial (“Fraction of initial”) transthyretin tetramer concentration remaining in each sample following treatment with urea.
The samples were then subjected to denaturation for 24, 31 or 36, or 48 hours and then cross-linked (as above).

| Stabilization of transthyretin tetramer (in words) (tetrameric transthyretin [1]) | Beckman Normalized (tetrameric transthyretin [1]; Day 0) [mg/dL] | Olympus Normalized (tetrameric transthyretin [1]; Day 0) | Beckman Normalized (tetrameric transthyretin [1]; Day 3) [mg/dL] | Olympus Normalized (tetrameric transthyretin [1]; Day 3) [mg/dL] | Stabilization of tetrameric transthyretin (in words) (tetrameric transthyretin [2]; 7.2 μM, three-day 4.8 M urea treatment, human plasma) | Normalized (mg/dL) transthyretin tetramer concentration (tetrameric transthyretin [2]; Day 0 (no incubation), 4.8 M urea, human plasma) [mg/dL] | Normalized (mg/dL) transthyretin tetramer concentration (tetrameric transthyretin [2]; Day 3 in 4.8 M urea, human plasma) [mg/dL] | Stabilization of tetrameric transthyretin by western blot (in words) (tetrameric transthyretin [3]) | Stabilization of tetrameric transthyretin in V30M patient plasma [4] | Dose dependence of tetramer stabilization (percent of tetramer remaining) (tetrameric transthyretin [1]; 4.6 or 9.2 μM, 3.2 M urea, 8-48 hours, Bayer ADVIA prealbumin kit, pooled plasma, FIG. 7) | Dose dependence of tetramer stabilization (percent of tetramer remaining) (tetrameric transthyretin [2]; 2.2, 4.3, 8.6 μM, 4.8 M urea, days 1, 2, 3, pooled plasma, FIG. 6) | SMILES |
| --- | --- | --- | --- | --- | --- | --- | --- | --- | --- | --- | --- | --- |
| almost completely stabilized | 10.53 | 22.12 mg/dL | 12.26 | 23.45 | nearly completely stabilized | 23.5 | 21.9 | almost completely stabilized | – | – | – | O=C(O)c1ccc2nc(-c3c(Cl)cccc3Cl)oc2c1 [Cmp. 1] |
| significantly stabilized | – | 22.12 mg/dL and 23.72 mg/dL | – | 13.59 | – | – | – | – | stabilized in a dose-dependent manner | more effective than lower concentrations | more effective than lower concentrations | O=C(O)c1ccc2nc(-c3cc(Cl)cc(Cl)c3)oc2c1 [Cmp. 2] |
